Structures are written as SMILES.

This data set is described as follows: gradient 5% acetonitrile 3 min, to 50% in 2 min, to 85% in 15 min, held 3 min, 100 µL/min. The following applies: column: Zorbax Extend-C18 2.1 x 50 mm; eluents: water / acetonitrile, 0.1% formic acid. Summed up: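 The system's dead and dwell volumes were 40 μL and 900 μL, with a Zorbax Extend-C18 column (2.1 × 50 mm, 1.8 μm) run at 100 μL/min in water and acetonitrile containing 0.1% formic acid each. Pure standards were analyzed in mixtures of ~100 molecules by HPLC–quadrupole time-of-flight mass spectrometry in positive and negative ionization mode. Retention time was assigned from computationally picked, manually inspected adduct peaks.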
In turn, `CC1=C(c2ccc(C)cc2)S(=O)(=O)N=C1N1CCCN(C(=O)c2ccccc2F)CC1` came in with an RP-LC retention time of 846 s. As to `COc1ccc(NC(=O)c2cc(C)n3nc(-c4ccco4)cc3n2)cc1F`, the RP-LC retention time worked out at 1060 s. The figure for `Cc1cc(Cl)ccc1N1C(=O)CN(S(C)(=O)=O)CC1(C)C(=O)NC1CCCCCC1` (stereo not given) is 984 s; for `Cc1cc(C(F)(F)F)nc(Nc2nc(C)c3ccccc3n2)n1` it is 679 s; for `COc1ccc(C(=O)CC2(O)C(=O)Nc3ccc(C)cc32)c(OC)c1OC` (stereo not given) it is 722 s.

Molecule `CCN(CC)CCNC(=O)c1ccc2nc(C(C)C)oc2c1` had an RP-LC retention time of 605 s.

The molecule `Cc1ccc(OCC(=O)NC[C@@]23CCC[C@H]2N(C)C(=O)CC3)cc1` came in with an RP-LC retention time of 674 s. Next, `O=C(NCc1ccc(Br)cc1)c1ccc(-c2cncnc2)nc1`: 765 s. `Cc1cc(NC(=O)Nc2ccc3nnc(C4CCC4)n3c2)ccc1Br` showed an RP-LC retention time of 903 s. `c1cnc(-c2n[nH]c(C3CCN(Cc4ccsc4)CC3)n2)cn1` registered an RP-LC retention time of 559 s. Regarding `Cc1nc(N2CCN(C(=O)CCCc3ccccc3)CC2)cc(-n2cccn2)n1`, the RP-LC retention time came out at 928 s. On to `CNC(=O)c1ccc(Nc2c(-c3ccc(OC)cc3)nc3cnccn23)cc1`, for which the RP-LC retention time worked out at 643 s. Consider `COc1ccc(C(=O)Cn2nc3n(CC(C)C)c(=O)c4ccccc4n3c2=O)cc1OC`, for which the RP-LC retention time worked out at 951 s. The figure for `Cc1cc(C)cc(-n2ncc3c(N4CCN(CCO)CC4)ncnc32)c1` is 649 s. For the molecule `Cc1ccc(C(=O)Nc2nccnc2C(=O)NC2CCCCC2)cc1`, the RP-LC retention time stood at 1100 s.

The molecule `CN(C)c1ccc2c(c1)CN(C(=O)c1ccsc1)CCO2` returned an RP-LC retention time of 586 s. Turning to `CC1CCN(S(=O)(=O)c2cccc(-c3nnc(-c4ccc(Cl)cc4)o3)c2)CC1`, the RP-LC retention time was determined as 1250 s. Consider `CCNS(=O)(=O)c1cccnc1Nc1ccccc1F`, for which the RP-LC retention time amounted to 948 s. As to `CCOc1ccc(CNC(=O)C2CCN(Cc3cn(C)c4ccccc34)CC2)cc1OCC`, the RP-LC retention time turned out to be 708 s. The molecule `CC(C)Oc1ccc(CNC(=O)C2CCCN(c3nn4c(=O)c5c(nc4s3)CCCC5)C2)cc1` (stereo not given) registered an RP-LC retention time of 844 s.

For the molecule `Cc1nc(C)c(C(=O)Nc2nc(-c3ccccc3)c(C)s2)s1`, the RP-LC retention time is 930 s. Molecule `CC1=NS(=O)(=O)N(C)C=C1C(=O)OCc1cccc(C)c1` came in with an RP-LC retention time of 967 s. Molecule `COCCN1C(=O)c2ccccc2C(C(=O)NC2CCCC2)C1c1cccs1` (stereo not given) displayed an RP-LC retention time of 843 s. The molecule `CC1CCN(c2nc(-c3ccc(Cl)cc3)nc3ccccc23)CC1` had an RP-LC retention time of 947 s. In turn, `O=C(NCc1noc(-c2ccco2)n1)c1coc(C2CC2)n1` gave an RP-LC retention time of 736 s. The figure for `Cc1ccc(CNC(=O)CN2C(=O)C3CCCN3C(=O)c3cccc(C)c32)cc1` (stereo not given) is 736 s; for `COc1cc(NC(=O)c2nc(C)oc2C)cc(OC)c1` it is 750 s; for `COC1C(=O)N(C2CCN(C(=O)c3sc(C)nc3C)CC2)C12CCOCC2` (stereo not given) it is 589 s. Next, `Cc1ccc2[nH]c(=O)c(CCC(=O)N3CCCN(c4ncccn4)CC3)cc2c1`: 654 s. Next, `O=C(Cc1ccsc1)NCCC1CCN(C(=O)Nc2ccc(F)cc2F)CC1`: 766 s; `CCOc1ccccc1NC(=O)N1C[C@@H]2CN(S(=O)(=O)c3ccc(C)cc3)C[C@H](C1)O2`: 915 s. In turn, `CCOC(=O)C1=C(C)NC(=O)NC1c1ccc(OCC(=O)N2CCCCC2)cc1` (stereo not given) yielded an RP-LC retention time of 682 s. Consider `CC12CC(c3ccccc3O1)C(C(=O)N1CCCCC1)C(=O)N2` (stereo not given), for which the RP-LC retention time is 726 s.

`Cc1cc(N2CCOCC2)n2nc(CN3CCN(c4cccc(Cl)c4)CC3)nc2n1`: the RP-LC retention time is 656 s.

Consider `CC1(C)C(=O)N(CC(=O)Nc2ccc3c(c2)OCCO3)c2ccccc21`, for which the RP-LC retention time was 823 s.

As for `Cc1cc(N2CCCC2)n2ncnc2n1`, the RP-LC retention time was found to be 567 s.

`COc1ccc(S(=O)(=O)N2CCCC(C(=O)Nc3ccc(C(N)=O)cc3)C2)cc1OC` (stereo not given) had an RP-LC retention time of 682 s. Regarding `CN(CCCNC(=O)C1CCc2nc(N3CCOCC3)ncc2C1)c1ccccc1` (stereo not given), the RP-LC retention time worked out at 602 s.

In the case of `O=C(CNC(=O)c1cc2ccccc2o1)Nc1cccc(C(F)(F)F)c1`, the RP-LC retention time is 928 s. The molecule `CCOc1ccccc1CNC(=O)C1CCN(S(=O)(=O)c2ccc3[nH]c(=O)ccc3c2)CC1` gave an RP-LC retention time of 750 s.

The molecule `CCOC(=O)c1c(C)[nH]c(C(=O)N2CCC(CC(=O)NCc3cccc(Cl)c3)CC2)c1C` returned an RP-LC retention time of 824 s. `O=C(Cn1cnc(-c2ccc(F)cc2)cc1=O)NCc1ccco1`: the RP-LC retention time came to 684 s.

In turn, `Cn1ncc2c(N3CCOCC3)nc(C(=O)NCc3ccccc3)nc21` gave an RP-LC retention time of 701 s.

For `Cc1cc(-c2nnc(-c3ccccc3)o2)c(C)n1CC(=O)NC(C)c1ccccc1` (stereo not given), the RP-LC retention time worked out at 921 s. `COc1cc(-c2noc(Cc3nnc(-c4cc(C)cc(C)c4)o3)n2)cc(OC)c1OC`: the RP-LC retention time came to 1050 s. Molecule `CCCNc1cc(N2CCC(CCC(=O)NCc3cc(F)cc(F)c3)CC2)ncn1` returned an RP-LC retention time of 704 s. As to `COC(=O)c1ccc(CN2CCC(c3nnc(C(F)(F)F)o3)CC2)o1`, the RP-LC retention time was determined as 560 s. In turn, `O=C(COc1ccc([N+](=O)[O-])cc1Cl)N1CCOCC1` returned an RP-LC retention time of 846 s.

`COc1ccc(S(=O)(=O)Nc2ccc(-c3cn4ccc(C)nc4n3)cc2)cc1` registered an RP-LC retention time of 656 s.

`Cc1nn2c(CNS(=O)(=O)c3ccc4c(c3)CCC4)c(-c3ccccc3)nc2s1`: the RP-LC retention time turned out to be 936 s.

In turn, `O=C(NCc1ccncc1)C1CCCN(c2ncnc3c2oc2ccccc23)C1` (stereo not given) yielded an RP-LC retention time of 579 s. Take `Cc1[nH]c(C(=O)N2CCC(CC(=O)NCc3cccnc3)CC2)c(C)c1C(=O)OC(C)C`: the RP-LC retention time stood at 597 s. Turning to `O=C(Cn1ccc2ccccc21)N1CCC(COCc2ccccc2)CC1`, the RP-LC retention time came to 1020 s.

`CN(Cc1ccccc1)c1ncc(C(=O)O)c(-c2ccncc2)n1`: the RP-LC retention time turned out to be 675 s. The figure for `Cn1cnc(S(=O)(=O)N2CCC(C(=O)Nc3ccccc3)CC2)c1` is 675 s. For `COc1ccc(-n2nnc(-c3nsc(Nc4ccc(Cl)cc4)n3)c2C)cc1`, the RP-LC retention time was determined as 1060 s. The figure for `CC(C)c1noc(-c2cccnc2N2CCCN(Cc3cccc(C(F)(F)F)c3)CC2)n1` is 794 s; for `CCN1C(=O)C(C)(C(=O)Nc2ccc(OC)cc2)Oc2cccnc21` (stereo not given) it is 827 s; for `CCOc1ccccc1C1NC(=O)N(CC(=O)Nc2ccc3c(c2)CCC3)C2=C1C(=O)OC2` (stereo not given) it is 900 s. In turn, `COCCN(Cc1ccco1)C(=O)Cn1nc(Cc2cccnc2)c2ccccc2c1=O` came in with an RP-LC retention time of 613 s. `O=C(NCc1ccc(F)cc1)Nc1nnc(-c2ccco2)o1` had an RP-LC retention time of 706 s.

In turn, `Cc1ccc(-n2c(N3CCCC(C(=O)NCC(C)C)C3)nc3ccsc3c2=O)cc1` (stereo not given) had an RP-LC retention time of 847 s. `COc1ccc(-c2nnc(-c3ccc(C)c(S(=O)(=O)N4CCCCC4)c3)o2)cc1OC` registered an RP-LC retention time of 1060 s. Next, `COc1cccc(CCc2nc(-c3ccc4oc(C)nc4c3)no2)c1`: 1030 s. For the molecule `Cc1ccc(NS(=O)(=O)c2cc3c(s2)CCN(C(=O)C2CC2)C3)cc1F`, the RP-LC retention time was determined as 880 s. `Cc1cccc(CNC(=O)C2CCN(S(=O)(=O)c3c(C)[nH]c(C)c3C(=O)N3CCCC3)CC2)c1` yielded an RP-LC retention time of 695 s. `CN1CCCC1c1nc(C2CN(C(=O)CCc3nc4ccccc4s3)C2)no1` (stereo not given): the RP-LC retention time came to 607 s. Next, `CC(C)(C)NS(=O)(=O)CCNC(=O)c1ccccc1`: 665 s; `CN(C)C(CNC(=O)c1cc(-c2ccc(Cl)cc2)on1)c1cccs1` (stereo not given): 728 s; `CCn1c(=O)sc2cc(S(=O)(=O)N3CCC(C(=O)NCc4ccccc4Cl)CC3)ccc21`: 905 s. In turn, `CCn1cc(S(=O)(=O)Nc2ccc(C)cc2)c2cccnc21` returned an RP-LC retention time of 838 s. Next, `COc1ccc(NC(=O)NCC2CCOCC2)c(C)c1`: 657 s. Next, `CCCc1ccc(S(=O)(=O)Nc2ccc(N3CCCN(C)CC3)cc2C(=O)O)cc1`: 676 s; `CC(C)=C1C(=O)Nc2ccc(S(=O)(=O)N3CCN(c4ccccn4)CC3)cc21`: 612 s; `Cc1nc(CCNC(=O)C2CCN(S(=O)(=O)c3ccc(Br)s3)CC2)cs1`: 759 s. The molecule `Cc1cccc(S(=O)(=O)N2CCN(c3nc4ccncc4n(CC(C)C)c3=O)CC2)c1` displayed an RP-LC retention time of 778 s. `COc1ccc2[nH]cc(CCNC(=O)Cn3c4ccccc4c4cnn(C)c(=O)c43)c2c1`: the RP-LC retention time turned out to be 767 s. `O=C(NCc1ccco1)c1csc(-c2ccc(N3CCCCC3)nc2)n1` returned an RP-LC retention time of 819 s.

In the case of `CCC(C)NC(=O)Cn1nc2nc(Nc3ccc(F)cc3)ccn2c1=O` (stereo not given), the RP-LC retention time amounted to 684 s.

Molecule `COc1ccc(-c2nc3cc(C)ccn3c2NC(=O)COc2ccc(Cl)cc2)cc1` had an RP-LC retention time of 729 s.

Source of the values: the METLIN SMRT retention time set (Domingo-Almenara et al. 2019).
